# Measured values published in publication PMC6792352, “Limited Chemical Structural Diversity Found to Modulate Thyroid Hormone Receptor in the Tox21 Chemical Library” (Environmental Health Perspectives, 2019).
# Structures can show the parent of a compound that is named as a salt.
# Assay: in vitro
# Conditions: rat, gh3-tre-luc cells, AC50 (uM) modified / 1000
row,Compound,CC50 at 24 h [µM]
1,CC(C)CCCC(=O)O [5-Methylhexanoic acid],> 90
2,CC(=O)OC1CC(C)OC(C)O1 (stereo not drawn) [Dimethoxane],> 90
3,CC(C)(Sc1cc(C(C)(C)C)c(O)c(C(C)(C)C)c1)Sc1cc(C(C)(C)C)c(O)c(C(C)(C)C)c1 [Probucol],> 20
4,Clc1ccc(CCC(Cn2ccnc2)Sc2c(Cl)cccc2Cl)cc1 (stereo not drawn) [Butoconazole nitrate],> 20
5,CCC(C)(C)c1ccc(CC(C)CN2C[C@@H](C)O[C@@H](C)C2)cc1 (stereo partly drawn) [Amorolfine],11.1
6,CC(C)(C)c1ccc(C(=O)O)cc1 [4-tert-Butylbenzoic acid],> 90
7,CCCCCCCCS(=O)(=O)Cl [1-Octanesulfonyl chloride],> 90
8,C=C(C)C(=O)OCC(CC)CCCC (stereo not drawn) [2-Ethylhexyl methacrylate],> 90
9,Nc1c2c(nc3c1CCC3)CCCC2 [Ipidacrine hydrochloride hydrate],> 50
10,C=C/C(C)=C/C/C=C(\C)CCC=C(C)C [alpha-Farnesene],> 90
11,"CC(=O)C(Cl)C(=O)N(C)C (stereo not drawn) [2-Chloro-N,N-dimethyl-3-oxobutanamide]",> 90
12,CCCCCCCCBr [1-Bromooctane],> 90
13,CCCCCCC/C=C/C=O [(2E)-2-Decenal],> 90
14,CC(C)(C)NCC(O)c1ccc(O)c(CO)c1 (stereo not drawn) [Albuterol],> 90
15,COc1c2occc2c(OC)c2c(=O)cc(C)oc12 [Khellin],> 20
16,CCCCc1cc2ccccc2c(OCCN(C)C)n1 [Dimethisoquin hydrochloride],7.4
17,CC(C)N(Cc1ccccc1)C(=O)C(C)(C)C [Butam],> 90
18,"Cc1ccc(C)c(N)c1 [2,5-Dimethylaniline]",> 90
19,CC1(C)S[C@@H]2[C@H](NC(=O)C(C(=O)O)c3ccccc3)C(=O)N2[C@H]1C(=O)O (stereo partly drawn) [Carbenicillin disodium],> 50
20,N#Cc1ccc(C(=O)O)cc1 [4-Cyanobenzoic acid],> 90
21,CCCCOC(=O)/C=C\C(=O)OCCCC [Dibutyl maleate],> 90
22,"O=C(O)CCCOc1ccc(Cl)cc1Cl [2,4-DB-sodium]",> 90
23,O=Cc1ccccc1 [Benzaldehyde],> 90

# Same assay, conditions: rat, gh3-tre-luc cells, AC50 (uM) modified / 1000, Tox21_110001=Tox21_110520; viability, 1 nM T3 present, 24 h
row,Compound,CC50 at 24 h [µM]
1,C[C@]12C[C@H]3S[C@H]3C[C@@H]1CC[C@@H]1[C@@H]2CC[C@]2(C)[C@@H](O)CC[C@@H]12 [Epitiostanol],> 20

# Same assay, conditions: rat, gh3-tre-luc cells, AC50 (uM) modified / 1000, Tox21_110001=Tox21_111076; viability, 1 nM T3 present, 24 h
row,Compound,CC50 at 24 h [µM]
1,"Clc1ccc(C(c2ccc(Cl)cc2)C(Cl)(Cl)Cl)cc1 [p,p'-DDT]",19.5

# Same assay, conditions: rat, gh3-tre-luc cells, AC50 (uM) modified / 1000, Tox21_110001=Tox21_111251; viability, 1 nM T3 present, 24 h
row,Compound,CC50 at 24 h [µM]
1,C[C@]12N[C@H](Cc3ccccc31)c1ccccc12 [Dizocilpine maleate],> 50

# Same assay, conditions: rat, gh3-tre-luc cells, AC50 (uM) modified / 1000, Tox21_110001=Tox21_112069; viability, 1 nM T3 present, 24 h
row,Compound,CC50 at 24 h [µM]
1,CCOP(=O)(OCC)O/C(=C\Cl)c1ccc(Cl)cc1Cl [Chlorfenvinphos],> 50

# Same assay, conditions: rat, gh3-tre-luc cells, AC50 (uM) modified / 1000, Tox21_110001=Tox21_112345; viability, 1 nM T3 present, 24 h
row,Compound,CC50 at 24 h [µM]
1,ClC1=C(Cl)C2(Cl)C(CBr)CC1(Cl)C2(Cl)Cl (stereo not drawn) [Bromociclen],22.4

# Same assay, conditions: rat, gh3-tre-luc cells, AC50 (uM) modified / 1000, Tox21_110001=Tox21_112886; viability, 1 nM T3 present, 24 h
row,Compound,CC50 at 24 h [µM]
1,CN1CC[C@]23c4c5ccc(O)c4O[C@H]2[C@@H](O)CC[C@H]3[C@H]1C5 [Dihydromorphine],> 90

# Same assay, conditions: rat, gh3-tre-luc cells, AC50 (uM) modified / 1000, Tox21_110001=Tox21_200241; viability, 1 nM T3 present, 24 h
row,Compound,CC50 at 24 h [µM]
1,"CN(C)CCN(C)C [N,N,N',N'-Tetramethylethylenediamine]",> 90

# Same assay, conditions: rat, gh3-tre-luc cells, AC50 (uM) modified / 1000, Tox21_110001=Tox21_200804; viability, 1 nM T3 present, 24 h
row,Compound,CC50 at 24 h [µM]
1,N#CC(O)c1ccccc1 (stereo not drawn) [alpha-Hydroxybenzeneacetonitrile],> 90

# Same assay, conditions: rat, gh3-tre-luc cells, AC50 (uM) modified / 1000, Tox21_110001=Tox21_201417; viability, 1 nM T3 present, 24 h
row,Compound,CC50 at 24 h [µM]
1,CC(Br)C(=O)O (stereo not drawn) [2-Bromopropionic acid],> 90

# Same assay, conditions: rat, gh3-tre-luc cells, AC50 (uM) modified / 1000, Tox21_110001=Tox21_201495; viability, 1 nM T3 present, 24 h
row,Compound,CC50 at 24 h [µM]
1,"Clc1ccc(C(c2ccc(Cl)cc2)C(Cl)(Cl)Cl)cc1 [p,p'-DDT]",44.8

# Same assay, conditions: rat, gh3-tre-luc cells, AC50 (uM) modified / 1000, Tox21_110001=Tox21_201946; viability, 1 nM T3 present, 24 h
row,Compound,CC50 at 24 h [µM]
1,CCOc1ccc(N)cc1 [4-Ethoxyaniline],> 90

# Same assay, conditions: rat, gh3-tre-luc cells, AC50 (uM) modified / 1000, Tox21_110001=Tox21_202356; viability, 1 nM T3 present, 24 h
row,Compound,CC50 at 24 h [µM]
1,O=NN1CCCC1 [N-Nitrosopyrrolidine],> 100

# Same assay, conditions: rat, gh3-tre-luc cells, AC50 (uM) modified / 1000, Tox21_110001=Tox21_202792; viability, 1 nM T3 present, 24 h
row,Compound,CC50 at 24 h [µM]
1,"Clc1cc2c(cc1Cl)Oc1cc(Cl)c(Cl)cc1O2 [2,3,7,8-Tetrachlorodibenzo-p-dioxin]",> 0.3

# Same assay, conditions: rat, gh3-tre-luc cells, AC50 (uM) modified / 1000, Tox21_110001=Tox21_202858; viability, 1 nM T3 present, 24 h
row,Compound,CC50 at 24 h [µM]
1,COc1ccc(C=O)cc1O [3-Hydroxy-4-methoxy-benzaldehyde],> 90

# Same assay, conditions: rat, gh3-tre-luc cells, AC50 (uM) modified / 1000, Tox21_110001=Tox21_300067; viability, 1 nM T3 present, 24 h
row,Compound,CC50 at 24 h [µM]
1,"Clc1ccc(C(c2ccc(Cl)cc2)C(Cl)(Cl)Cl)cc1 [p,p'-DDT]",28.7

# Same assay, conditions: rat, gh3-tre-luc cells, AC50 (uM) modified / 1000, Tox21_110001=Tox21_301527; viability, 1 nM T3 present, 24 h
row,Compound,CC50 at 24 h [µM]
1,"C=C[Si]1(C)O[Si](C)(C=C)O[Si](C)(C=C)O[Si](C)(C=C)O1 (stereo not drawn) [1,3,5,7-Tetramethyl-1,3,5,7-tetravinylcyclotetrasiloxane]",> 90

# Same assay, conditions: rat, gh3-tre-luc cells, AC50 (uM) modified / 1000, Tox21_110001=Tox21_301573; viability, 1 nM T3 present, 24 h
row,Compound,CC50 at 24 h [µM]
1,CCOP(=O)(OCC)O/C(=C\Cl)c1ccc(Cl)cc1Cl [Chlorfenvinphos],> 90

# Same assay, conditions: rat, gh3-tre-luc cells, AC50 (uM) modified / 1000, Tox21_110001=Tox21_301856; viability, 1 nM T3 present, 24 h
row,Compound,CC50 at 24 h [µM]
1,ClC1=C(Cl)C2(Cl)C(CBr)CC1(Cl)C2(Cl)Cl (stereo not drawn) [Bromociclen],36.9

# Same assay, conditions: rat, gh3-tre-luc cells, AC50 (uM) modified / 1000, Tox21_110001=Tox21_302913; viability, 1 nM T3 present, 24 h
row,Compound,CC50 at 24 h [µM]
1,O=NN1CCCC1 [N-Nitrosopyrrolidine],> 90
